These results are taken from publication PMC9504289 (Pharmaceuticals, 2022).

Values joined by “and” are separate entries in the source; they are usually repeats but may differ in a detail not shown here. Equal entries are not always repeated. Where two headings read alike, the source gives them in different places.

For one series, the target named is HCoV-NL63 S1 – hACE2 (Human coronavirus NL63, UniProt Q6Q1S2). Kind of series: biochemical. It counts as binding. As to conditions: for IC50: Inhibition of HCoV-NL63 S1 – hACE2 Binding: IC50.
Series [1] has as its system SARS-CoV-2. The following applies: read-out: IC50 for SARS-CoV-2 infection inhibition; cited from earlier work.
For series [2], the system named is SARS-CoV-2 pseudovirus (orig. strain). Kind of series: microbe, parasite or virus in culture. It counts as cell-based. The following applies: Severe acute respiratory syndrome-related coronavirus, HEK-293T, read-out: Inhibition of SARS-CoV-2 pseudovirus entry (orig. strain) IC50.
Series [3] deals with SARS-CoV-2 pseudovirus (delta VoC). Put plainly: microbe, parasite or virus in culture. It counts as cell-based.
The test system of series [4] is SARS-CoV-2. The following applies: read-out: antiviral activity IC50 confirmed in a live viral or pseudoviral assay; cited from earlier work.
For the next series, the target named is SARS-CoV-2-S. As to conditions: read-out: KD for binding to SARS-CoV-2-S; cited from earlier work.
The subject of a further series is HEK293T cells. The text has this:
Figure 8 Cytotoxicity assessment. MTS cytotoxicity assay (HEK293T cells) using the same conditions as for the activity assessment (Figure 7). Data (symbols) are average ± SD of three experiments in duplicates; TC50 values shown in the legend were obtained from fitting with standard sigmoid curves as before.

[5] abbreviates: Severe acute respiratory syndrome-related coronavirus, HEK-293T, hACE2-expressing HEK293T, read-out: Inhibition of SARS-CoV-2 pseudovirus entry (delta VoC) IC50.
Setting [6] is: same conditions as pseudovirus assay.

HCoV-NL63 S1 – hACE2, sequence (Q6Q1S2 19-717 limits assumed): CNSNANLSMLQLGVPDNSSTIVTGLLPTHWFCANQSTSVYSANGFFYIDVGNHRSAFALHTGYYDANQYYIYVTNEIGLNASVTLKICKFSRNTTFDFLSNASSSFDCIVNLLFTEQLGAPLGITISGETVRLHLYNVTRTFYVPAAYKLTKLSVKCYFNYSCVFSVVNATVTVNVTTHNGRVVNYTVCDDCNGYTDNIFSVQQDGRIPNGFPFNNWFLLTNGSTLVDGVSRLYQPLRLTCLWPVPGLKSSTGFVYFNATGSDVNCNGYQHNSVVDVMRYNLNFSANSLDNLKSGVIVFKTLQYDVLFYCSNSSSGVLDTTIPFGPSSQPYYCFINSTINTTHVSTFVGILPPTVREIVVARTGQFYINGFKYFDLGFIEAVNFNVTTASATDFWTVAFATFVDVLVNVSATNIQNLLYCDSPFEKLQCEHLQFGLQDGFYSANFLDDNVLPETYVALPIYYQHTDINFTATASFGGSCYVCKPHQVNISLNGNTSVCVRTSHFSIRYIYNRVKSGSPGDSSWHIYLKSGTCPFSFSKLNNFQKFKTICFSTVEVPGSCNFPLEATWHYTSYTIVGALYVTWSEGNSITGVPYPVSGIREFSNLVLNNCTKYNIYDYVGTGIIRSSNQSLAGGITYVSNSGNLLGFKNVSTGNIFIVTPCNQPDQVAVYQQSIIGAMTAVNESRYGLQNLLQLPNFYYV

For `Cc1cc(-c2ccc(/N=N/c3ccc4c(S(=O)(=O)O)cc(S(=O)(=O)O)c(N)c4c3O)c(C)c2)ccc1/N=N/c1ccc2c(S(=O)(=O)O)cc(S(=O)(=O)O)c(N)c2c1O` [Evans blue], the IC50 on HCoV-NL63 S1 – hACE2 was < 3 µM and 2.6 µM; in the series on SARS-CoV-2 [1], 28.1 µM; in series [2] it was 16.6 µM; in series [3] (Severe acute respiratory syndrome-related coronavirus, HEK-293T, read-out: Inhibition of SARS-CoV-2 pseudovirus entry (delta VoC) IC50, hACE2-expressing HEK293T) it was 25.4 µM; in the series with SARS-CoV-2 [4], less than 30 µM. For the same compound, the Kd (in general, a measure of binding affinity in units of concentration) at SARS-CoV-2-S is 2.2 µM. Also, the “Cytotoxicity (HEK293T cells, MTS): TC50” value in the series with HEK293T cells (same conditions as pseudovirus assay, listed as EvBl) was 439 µM and 439.20 µM.

For the compound `O=C(Nc1ccc(-c2ccc(C(=O)Nc3cccc4c(S(=O)(=O)O)cccc34)cc2)cc1)c1ccc([N+](=O)[O-])cc1` [DRI-C24041], the “loss of activity compared to the SARS-CoV assays” value at HCoV-NL63 S1 – hACE2 is listed as 2–5 fold. Further, the IC50 on HCoV-NL63 S1 – hACE2 came out at 6.54 µM; in series [2] (hACE2-expressing HEK293T) it was 6.58 µM; in series [3] (setting [5]), 7.76 µM. The “Cytotoxicity (HEK293T cells, MTS): TC50” value in the series with HEK293T cells (setting [6]) is > 600 µM and 617.90 µM.

On to `O=C(Nc1ccc(-c2ccc(C(=O)Nc3cccc4cc(S(=O)(=O)O)ccc34)cc2)cc1)c1ccc([N+](=O)[O-])cc1` [DRI-C23041], for which, on HCoV-NL63 S1 – hACE2, the “loss of activity compared to the SARS-CoV assays” value is on record as 2–5 fold. In addition, the IC50 on HCoV-NL63 S1 – hACE2 is 4.16 µM; in series [2] (hACE2-expressing HEK293T), 4.71 µM; in series [3] (setting [5]), 5.42 µM; in series [3] (read-out: Inhibition of SARS-CoV-2 pseudovirus entry (delta VoC) IC50, hACE2-expressing HEK293T), 6.31 µM; with SARS-CoV-2 [4], less than 30 µM. Moreover, the “Cytotoxicity (HEK293T cells, MTS): TC50” value in the series on HEK293T cells (setting [6]) is greater than 1000.00 µM.

Regarding `O=S(=O)(O)c1ccc(/N=N/c2c(O)ccc3cc(S(=O)(=O)O)ccc23)cc1` [Sunset yellow, sunset yellow FCF], the IC50 (on HCoV-NL63 S1 – hACE2; in series [2] (hACE2-expressing HEK293T); in series [3] (setting [5])) was greater than 500 µM in each case. Further, the “Cytotoxicity (HEK293T cells, MTS): TC50” value in the series with HEK293T cells (human) was greater than 1000.00 µM.

`C=C(C)[C@@H]1CCC(C)=C[C@H]1c1c(O)cc(CCCCC)c(C(=O)O)c1O` [cannabidiolic acid]: the IC50 in the series with SARS-CoV-2 [4] is less than 30 µM.

On to `Nc1c(/N=N/c2ccc([N+](=O)[O-])cc2)c(S(=O)(=O)O)cc2cc(S(=O)(=O)O)c(/N=N/c3ccccc3)c(O)c12` [Naphthol blue black, naphthol blue black], for which the IC50 on HCoV-NL63 S1 – hACE2 is 58.7 µM; in series [2] (hACE2-expressing HEK293T) it was greater than 500 µM; in series [3] (setting [5]), 174 µM. In the series with HEK293T cells (human), the “Cytotoxicity (HEK293T cells, MTS): TC50” value is greater than 1000.00 µM.

On to `Nc1c(/N=N/c2ccc(-c3ccc(/N=N/c4cc(S(=O)(=O)O)c5ccccc5c4N)cc3)cc2)cc(S(=O)(=O)O)c2ccccc12` [Congo red], for which the IC50 at HCoV-NL63 S1 – hACE2 is < 3 µM and 2.26 µM; in series [2] (hACE2-expressing HEK293T), 20.3 µM; in series [3] (setting [5]) it was 3.07 µM; with SARS-CoV-2 [4], less than 30 µM. Further, in the series with HEK293T cells (same conditions as pseudovirus assay, listed as CgRd), the “Cytotoxicity (HEK293T cells, MTS): TC50” value is 130 µM and 130.40 µM.

`O=C(Nc1ccc(-c2ccc(C(=O)Nc3ccc(S(=O)(=O)O)c4cccc(S(=O)(=O)O)c34)cc2)cc1)c1ccc([N+](=O)[O-])cc1` [DRI-C2105041]: the results for the IC50 in series [2] (hACE2-expressing HEK293T) and in series [3] (setting [5]) were 217 µM and 26.9 µM, respectively. The “Cytotoxicity (HEK293T cells, MTS): TC50” value in the series on HEK293T cells (setting [6]) is greater than 1000.00 µM.

`O=C(Nc1ccc2cc(C(=O)Nc3cccc4cccc(S(=O)(=O)O)c34)ccc2c1)c1ccc([N+](=O)[O-])cc1` [DRI-C41041]: the IC50 was greater than 500 µM in series [2] (hACE2-expressing HEK293T) and 27.7 µM in series [3] (setting [5]). In the series on HEK293T cells (setting [6]), the “Cytotoxicity (HEK293T cells, MTS): TC50” value was greater than 1000.00 µM.

As for `Nc1ccc2cc(S(=O)(=O)O)cc(O)c2c1/N=N/c1ccc(-c2ccc(/N=N/c3c(N)ccc4cc(S(=O)(=O)O)cc(O)c34)cc2)cc1` [Direct violet 1, direct violet 1], the IC50 at HCoV-NL63 S1 – hACE2 is < 3 µM and 2.29 µM; in series [2] (hACE2-expressing HEK293T) it was 35.8 µM; in series [3] (setting [5]), 2.97 µM; in the series with SARS-CoV-2 [4] it was less than 30 µM. The “Cytotoxicity (HEK293T cells, MTS): TC50” value in the series with HEK293T cells (same conditions as pseudovirus assay, listed as DV1) was 110 µM and 110.10 µM.

In the case of verteporfin, the IC50 in the series on SARS-CoV-2 [4] is less than 30 µM.

For `CCCCCc1cc(O)c(C/C=C(\C)CCC=C(C)C)c(O)c1C(=O)O` [cannabigerolic acid], the IC50 with SARS-CoV-2 [4] is less than 30 µM.

For `CN(C)c1ccc2nc3ccc(=[N+](C)C)cc-3sc2c1` [methylene blue], the IC50 with SARS-CoV-2 [4] was […].
